Test results: ChEMBL document CHEMBL1201862, “PubChem BioAssay data set” (2004)
Structures can show the parent of a compound that is named as a salt. Activity calls are given as the source filed them.

Columns and labels:
[1] = Glucagon-like peptide 1 release potency, NCI-H716 cell line, dose-response, half-maximal inhibitory concentration (AID 1117344); format: functional, cell-based
[2] = RKO cell viability reduction, dose response, CellTiter-Glo luminescence (AID 1117322); format: functional
[3] = cytotoxicity toward HCT116 cells – cell-based, CellTiter-Glo luminescence, IC50, dose response (AID 1117332); format: functional; settings: HCT-116
[4] = half-maximal inhibitory concentration for glucagon-like peptide-1 release, STC-1 cell line, dose-response (AID 1117345); format: functional, cell-based
[5] = HCT116 cell viability decrease, GSK3B pretreatment – CellTiter-Glo, IC50, dose response (AID 1117339); format: functional; settings: HCT-116
[6] = cytotoxicity toward Colo320 cells – cell-based, CellTiter-Glo luminescence, IC50, dose response (AID 1117334); format: functional; settings: COLO 320
[7] = CellTiter-Glo luminescent dose response of DLD-1 viability loss (AID 1117352); format: functional
[8] = cytotoxicity toward HT-29 cells – cell-based, CellTiter-Glo luminescence, IC50, dose response (AID 1117330); format: functional
[9] = SNU-C1 cell viability reduction, dose response, CellTiter-Glo luminescence (AID 1117323); format: functional, cell-based
[10] = Concentration-dependent survival of SW480 colon cancer line, luminescence detection with CellTiter-Glo, half-maximal inhibitory concentration (AID 1117338); format: functional
[11] = Vero cell cytotoxicity, dose response, cytotoxicity control for Vif-APOBEC3G degradation inhibitor project, Vero cells (AID 1117358); format: functional; settings: Human immunodeficiency virus 1, Vero
Vasopressin V2 receptor = Vasopressin V2 receptor (Homo sapiens, UniProt P30518); test: Late-stage results from the probe development effort to identify antagonists of arginine vasopressin receptor 1a (AVPR1a): fluorescence-based cell-based dose response AVPR2 inhibition counterscreen assay.; format: functional
[12] = Late-stage results from the probe development effort to identify antagonists of arginine vasopressin receptor 1a (AVPR1a): fluorescence-based cell-based dose response OXTR inhibition counterscreen assay.; format: functional
Vasopressin V1b receptor = Vasopressin V1b receptor (Homo sapiens, UniProt P47901); test: Late-stage results from the probe development effort to identify antagonists of arginine vasopressin receptor 1a (AVPR1a): fluorescence-based cell-based dose response AVPR1b inhibition counterscreen assay.; format: functional
[13] = Late-stage results from the probe development effort to identify antagonists of arginine vasopressin receptor 1a (AVPR1a): fluorescence-based cell-based dose response AVPR1a inhibition assay.; format: functional
[14] = P. falciparum Dd2 growth inhibitors, dose response, SYBR Green, cherry-picked samples (AID 1159567); format: functional, cell-based
[15] = P. falciparum ATP4 D1247Y mutant growth inhibitors, dose response, NITD609-resistant line, SYBR Green, dry powder (AID 1159571); format: functional, cell-based;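 also: parasites synchronized at ring stage by sorbitol before testing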
[16] = P. falciparum 3D7-ScDHODH growth inhibitors, dose response, SYBR Green, dry powder samples (AID 1159570); format: functional, cell-based;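 also: parasite growth measured after 72 hours of compound exposure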
[17] = HepG2 cell cytotoxicity, dose response, cytotoxicity control, cherry-picked samples (AID 1159577); format: functional, cell-based
[18] = HepG2 cell cytotoxicity, dose response, cytotoxicity control, plate reader, dry powder samples (AID 1159569); format: functional, cell-based;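 also: inhibitor potency with signal falling toward the positive control level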
[19] = P. falciparum Dd2 growth inhibitors, dose response, SYBR Green, dry powder samples (AID 1159566); format: functional, cell-based;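 also: potency for growth inhibition with lower SYBR green DNA signal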
[20] = cytotoxicity toward NIH3T3 fibroblasts, dose response, counter-screen, cell-based, ATP luminescence, mouse fibroblasts (AID 2010); format: functional;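 also: cells exposed to compound for about 90 hours before reading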
[21] = THP-1 cell cytotoxicity, dose response, cytotoxicity control for Vif-APOBEC3G degradation inhibitor project, THP-1 cells (AID 1117359); format: functional; settings: Human immunodeficiency virus 1, THP-1
[22] = inhibitors of intracellular T. cruzi replication, confirmation, NIH3T3 host cells, beta-gal luminescence (AID 2044); format: functional, cell-based;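 also: intracellular parasites grown in NIH/3T3 mouse fibroblasts as host cells; luminescent beta-galactosidase reporter signal from transgenic T. cruzi replicating inside host cells; inhibitors lower the luminescence signal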
[23] = inhibitors of Vif binding to APOBEC3G peptide, primary screen, biochemical, TR-FRET, GST-Vif 1-94, biotin-A3G peptide, dose response retest (AID 1117319); format: functional;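 also: TR-FRET signal of purified GST-Vif binding a biotinylated A3G peptide; inhibitors lower the FRET signal by blocking Vif and A3G binding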
[24] = target: DNA damage-inducible transcript 3 protein (Mus musculus, UniProt P35639); format: functional, Cricetulus griseus
[25] = Jurkat T cell cytotoxicity, dose response, cytotoxicity control for P. falciparum gametocyte viability project, luminescence (AID 1117277); format: functional, cell-based;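 also: potency reflects loss of cellular ATP meaning fewer viable cells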
[26] = P. falciparum late gametocyte killing, dose response, luminescence (AID 1117278); format: functional, cell-based;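 also: gametocytes exposed to compound for 24 hours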
[27] = target: T1, Sentrin-specific protease 8 (Homo sapiens, UniProt Q96LD8); format: functional
T1 sequence (Q96LD8 whole entry): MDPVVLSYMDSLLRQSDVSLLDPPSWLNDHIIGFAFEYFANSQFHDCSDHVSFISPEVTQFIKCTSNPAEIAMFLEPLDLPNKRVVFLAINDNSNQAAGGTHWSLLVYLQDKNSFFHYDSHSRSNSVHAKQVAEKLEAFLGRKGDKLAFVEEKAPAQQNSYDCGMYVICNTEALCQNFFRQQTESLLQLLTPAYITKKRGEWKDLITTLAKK

[28] = target: T1, Sentrin-specific protease 8; format: functional; remark: listed apart in the source
[29] = Artemis endonuclease inhibitor potency, dose response, biochemical, fluorescence intensity (AID 720701); format: functional;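 also: Artemis endonuclease enzyme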

Sequence of DNA damage-inducible transcript 3 protein (P35639 whole entry): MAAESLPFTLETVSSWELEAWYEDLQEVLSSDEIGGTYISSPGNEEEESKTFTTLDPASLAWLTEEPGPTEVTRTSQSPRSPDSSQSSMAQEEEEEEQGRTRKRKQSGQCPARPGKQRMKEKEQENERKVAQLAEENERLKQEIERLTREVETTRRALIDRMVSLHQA
Sequence of Vasopressin V1b receptor (P47901 whole entry): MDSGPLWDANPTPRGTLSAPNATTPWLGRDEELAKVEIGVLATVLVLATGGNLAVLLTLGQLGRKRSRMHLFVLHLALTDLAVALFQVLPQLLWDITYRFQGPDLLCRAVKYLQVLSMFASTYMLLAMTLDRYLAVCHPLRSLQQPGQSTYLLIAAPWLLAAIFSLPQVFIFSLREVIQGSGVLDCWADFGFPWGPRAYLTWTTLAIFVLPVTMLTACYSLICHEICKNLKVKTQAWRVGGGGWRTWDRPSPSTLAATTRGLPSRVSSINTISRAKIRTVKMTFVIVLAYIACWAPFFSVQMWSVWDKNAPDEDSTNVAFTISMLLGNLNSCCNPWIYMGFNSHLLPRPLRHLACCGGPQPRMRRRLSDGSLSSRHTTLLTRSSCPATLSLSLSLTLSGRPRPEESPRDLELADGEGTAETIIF
Sequence of Vasopressin V2 receptor (P30518 whole entry): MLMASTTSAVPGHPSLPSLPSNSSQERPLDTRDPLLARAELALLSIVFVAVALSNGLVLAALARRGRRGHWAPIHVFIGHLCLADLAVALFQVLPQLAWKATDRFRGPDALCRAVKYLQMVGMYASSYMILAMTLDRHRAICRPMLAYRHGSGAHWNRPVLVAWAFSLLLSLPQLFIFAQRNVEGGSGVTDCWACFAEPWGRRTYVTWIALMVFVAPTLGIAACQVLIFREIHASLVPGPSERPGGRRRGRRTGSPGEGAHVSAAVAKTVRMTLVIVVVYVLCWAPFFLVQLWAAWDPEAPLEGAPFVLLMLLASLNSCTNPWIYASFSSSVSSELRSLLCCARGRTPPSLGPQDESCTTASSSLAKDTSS

With `C[C@@H]1CN(CCCn2c3ccccc3c3ccccc32)C[C@H](C)N1` [RIMCAZOLE HYDROCHLORIDE] the IC50 [1] was 6.37 µM (inactive), the IC50 [2] was 2.18 µM (active) and the IC50 [3] was 10.5 µM (inactive). The IC50 [4] was > 40 µM (inactive), the IC50 [5] was 3.85 µM (active) and the IC50 [6] was 15.9 µM (inactive). For the same molecule, the IC50 [7] was 9.8 µM (inactive), the IC50 [8] was 4.02 µM (active) and the IC50 [9] was 6.02 µM (inactive). For the same molecule, the IC50 [10] was 2.35 µM (active).

For `Cc1cc(Cl)c(S(=O)(=O)NCC2CCCO2)cc1OCC(=O)NC1CCCCC1` (stereo not drawn), the CC50 [11] was > 40 µM (active).

For `O=C(N1CCC2(CC1)OCc1ccccc12)N(CC1CC1)c1ccccc1`, the IC50 (Vasopressin V2 receptor) was 20 µM (inactive), the IC50 [12] was 20 µM (inactive) and the IC50 (Vasopressin V1b receptor) was 25.1 µM (inactive). For the same molecule, the IC50 [13] was 0.466 µM (active).

With `COc1ccc(C#Cc2ccc([C@@H]3[C@H](CO)N4CCCCN(C(=O)Nc5ccccc5F)C[C@@H]34)cc2)cc1` the AC50 [14] was 1.42 µM (active), the AC50 [15] was 0.771 µM (active) and the AC50 [16] was 1.02 µM (active). For the same molecule, the AC50 [17] was 9.73 µM (active), the AC50 [18] was 8.16 µM (active) and the AC50 [19] was 0.898 µM (active).

For `COc1cccc(/C=N/NC(N)=S)c1OCc1ccccc1Cl`, the EC50 [20] was > 30 µM (not active), the CC50 [21] was > 40 µM (active) and the EC50 [22] was 1.18 µM (active).

For `Oc1ccc(Cl)cc1-c1cc(-c2ccccc2)[nH]n1`, the IC50 [23] was > 100 µM (active), the CC50 [11] was > 40 µM (active) and the “Absolute IC50 (CHOP)” value [24] was 10 µM.

For `Cc1cccc(Nc2cc(Cl)nc(SCC(=O)O)n2)c1C` [PIRINIXIC ACID], the IC50 [2] was > 20 µM (inactive), the IC50 [3] was > 20 µM (inactive) and the IC50 [5] was > 20 µM (inactive). For the same molecule, the IC50 [6] was > 20 µM (inactive), the IC50 [7] was > 20 µM (inactive) and the IC50 [8] was > 20 µM (inactive). For the same molecule, the IC50 [9] was > 20 µM (inactive) and the IC50 [10] was > 20 µM (inactive).

In the case of `COc1ccc(CCN(C)CCCN2CC(c3ccccc3)CC2=O)cc1OC` (stereo not drawn), the IC50 [25] is reported as > 83.3 µM (inactive) and the IC50 [26] is reported as > 109 µM (inactive).

With `CN(C)CCN(C(=O)c1ccc(N2C(=O)CCC2=O)cc1)c1nc2cc3c(cc2s1)OCO3` the EC50 [20] was > 60 µM (not active), the EC50 (cells) was 0.102 µM (active) and the IC50 [27] was 33.5 µM (active). The IC50 [28] was 24.4 µM (active) and the EC50 [22] was < 0.1 µM (active).

In the case of `O=C(NC(C(=O)N/N=C/c1c2ccccc2cc2ccccc12)c1nnc(O)c2ccccc12)c1ccccc1` (stereo not drawn), the IC50 [29] is reported as > 20 µM (inactive).
